Reference: ChEMBL document CHEMBL1152349, “Optimization of 2-piperidin-4-yl-acetamides as melanin-concentrating hormone receptor 1 (MCH-R1) antagonists: Designing out hERG inhibition” (Bioorg Med Chem Lett, 2009)

Columns and labels:
[1] = biological target: T1, Melanin-concentrating hormone receptor 1 (Homo sapiens, UniProt Q99705); assay: Displacement of [125I]MCH from human MCHR1 expressed in HEK293 cells; type: cell-based
[2] = biological target: T2, Voltage-gated inwardly rectifying potassium channel KCNH2 (Homo sapiens, UniProt Q12809); assay: Inhibition of human ERG activation expressed in CHO cells by rubidium efflux assay; type: cell-based
[3] = Dissociation constant, pKa by pressure assisted capillary electrophoresis; type: physicochemical
[4] = biological target: T2, Voltage-gated inwardly rectifying potassium channel KCNH2; assay: Inhibition of human ERG expressed in CHO cells by patch clamp assay; type: cell-based
Mus musculus = assay: Antiobesity activity in DIO mouse model assessed as reduction in weight at 50 umol/kg, po once daily after 21 days; type: functional; parameters: scale not given: the % may be the effect or the level left
[5] = biological target: T1, Melanin-concentrating hormone receptor 1; assay: Antagonist activity at human MCHR1 expressed in HEK293 cells assessed as [35S]GTPgammaS accumulation; type: functional, cell-based
[6] = biological target: Sodium channel protein type 5 subunit alpha (Homo sapiens, UniProt Q14524); assay: Inhibition of NaV1.5 sodium channel expressed in CHO cells by patch clamp assay; type: cell-based
[7] = biological target: Melanin-concentrating hormone receptor 2 (Homo sapiens, UniProt Q969V1); assay: Displacement of [125I]MCH from human MCHR2 expressed in CHO cells; type: cell-based
Liver microsomes = assay: Intrinsic clearance in human liver microsomes; type: ADME, Microsome

T1 sequence (Q99705 whole entry): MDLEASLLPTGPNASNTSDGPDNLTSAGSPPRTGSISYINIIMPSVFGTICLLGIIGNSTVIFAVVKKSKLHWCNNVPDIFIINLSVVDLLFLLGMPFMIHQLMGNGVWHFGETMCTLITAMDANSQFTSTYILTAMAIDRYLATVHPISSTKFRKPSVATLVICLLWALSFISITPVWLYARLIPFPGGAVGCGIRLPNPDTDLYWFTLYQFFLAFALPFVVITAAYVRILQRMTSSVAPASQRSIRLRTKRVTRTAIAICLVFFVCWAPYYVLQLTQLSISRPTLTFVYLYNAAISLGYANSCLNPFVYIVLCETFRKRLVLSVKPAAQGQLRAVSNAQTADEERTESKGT
T2 sequence (Q12809 whole entry): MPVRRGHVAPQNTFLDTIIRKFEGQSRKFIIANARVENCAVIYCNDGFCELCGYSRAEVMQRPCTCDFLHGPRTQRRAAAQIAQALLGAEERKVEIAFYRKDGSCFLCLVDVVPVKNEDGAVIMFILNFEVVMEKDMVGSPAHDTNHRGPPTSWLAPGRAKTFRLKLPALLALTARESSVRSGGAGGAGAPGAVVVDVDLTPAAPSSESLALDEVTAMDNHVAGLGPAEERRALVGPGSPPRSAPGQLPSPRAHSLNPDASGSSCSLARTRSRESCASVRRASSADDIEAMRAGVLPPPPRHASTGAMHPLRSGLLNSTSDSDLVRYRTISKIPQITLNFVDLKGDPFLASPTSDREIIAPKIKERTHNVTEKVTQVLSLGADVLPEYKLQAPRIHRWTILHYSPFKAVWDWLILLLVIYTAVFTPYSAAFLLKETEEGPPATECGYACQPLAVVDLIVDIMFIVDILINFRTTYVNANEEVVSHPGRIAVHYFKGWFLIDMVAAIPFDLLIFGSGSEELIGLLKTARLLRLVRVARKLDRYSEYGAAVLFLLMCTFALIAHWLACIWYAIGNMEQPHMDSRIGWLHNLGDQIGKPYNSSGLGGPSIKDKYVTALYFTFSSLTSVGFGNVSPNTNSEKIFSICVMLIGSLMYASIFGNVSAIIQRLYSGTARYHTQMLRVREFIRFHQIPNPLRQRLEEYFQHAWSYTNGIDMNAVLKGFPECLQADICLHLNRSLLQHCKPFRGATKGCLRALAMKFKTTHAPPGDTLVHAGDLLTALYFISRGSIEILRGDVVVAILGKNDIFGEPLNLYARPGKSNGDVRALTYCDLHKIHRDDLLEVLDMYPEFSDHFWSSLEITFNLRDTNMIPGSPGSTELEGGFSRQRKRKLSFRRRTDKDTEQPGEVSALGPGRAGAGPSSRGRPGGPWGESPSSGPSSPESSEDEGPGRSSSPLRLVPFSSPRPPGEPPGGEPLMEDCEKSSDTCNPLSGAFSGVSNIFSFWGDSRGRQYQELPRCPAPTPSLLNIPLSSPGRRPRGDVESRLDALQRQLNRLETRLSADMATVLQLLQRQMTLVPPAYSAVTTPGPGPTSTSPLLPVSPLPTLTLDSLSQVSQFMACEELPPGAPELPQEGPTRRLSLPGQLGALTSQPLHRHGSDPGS
Melanin-concentrating hormone receptor 2, sequence (Q969V1 whole entry): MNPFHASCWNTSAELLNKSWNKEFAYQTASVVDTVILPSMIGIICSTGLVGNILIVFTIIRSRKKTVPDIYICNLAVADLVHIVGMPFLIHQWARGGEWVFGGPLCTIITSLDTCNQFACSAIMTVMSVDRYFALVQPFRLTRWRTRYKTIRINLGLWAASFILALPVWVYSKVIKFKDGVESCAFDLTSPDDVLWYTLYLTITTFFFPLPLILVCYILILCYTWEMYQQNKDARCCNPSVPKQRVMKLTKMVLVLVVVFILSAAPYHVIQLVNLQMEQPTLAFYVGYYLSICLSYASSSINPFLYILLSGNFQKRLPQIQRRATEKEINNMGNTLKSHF
Sodium channel protein type 5 subunit alpha, sequence (Q14524 whole entry): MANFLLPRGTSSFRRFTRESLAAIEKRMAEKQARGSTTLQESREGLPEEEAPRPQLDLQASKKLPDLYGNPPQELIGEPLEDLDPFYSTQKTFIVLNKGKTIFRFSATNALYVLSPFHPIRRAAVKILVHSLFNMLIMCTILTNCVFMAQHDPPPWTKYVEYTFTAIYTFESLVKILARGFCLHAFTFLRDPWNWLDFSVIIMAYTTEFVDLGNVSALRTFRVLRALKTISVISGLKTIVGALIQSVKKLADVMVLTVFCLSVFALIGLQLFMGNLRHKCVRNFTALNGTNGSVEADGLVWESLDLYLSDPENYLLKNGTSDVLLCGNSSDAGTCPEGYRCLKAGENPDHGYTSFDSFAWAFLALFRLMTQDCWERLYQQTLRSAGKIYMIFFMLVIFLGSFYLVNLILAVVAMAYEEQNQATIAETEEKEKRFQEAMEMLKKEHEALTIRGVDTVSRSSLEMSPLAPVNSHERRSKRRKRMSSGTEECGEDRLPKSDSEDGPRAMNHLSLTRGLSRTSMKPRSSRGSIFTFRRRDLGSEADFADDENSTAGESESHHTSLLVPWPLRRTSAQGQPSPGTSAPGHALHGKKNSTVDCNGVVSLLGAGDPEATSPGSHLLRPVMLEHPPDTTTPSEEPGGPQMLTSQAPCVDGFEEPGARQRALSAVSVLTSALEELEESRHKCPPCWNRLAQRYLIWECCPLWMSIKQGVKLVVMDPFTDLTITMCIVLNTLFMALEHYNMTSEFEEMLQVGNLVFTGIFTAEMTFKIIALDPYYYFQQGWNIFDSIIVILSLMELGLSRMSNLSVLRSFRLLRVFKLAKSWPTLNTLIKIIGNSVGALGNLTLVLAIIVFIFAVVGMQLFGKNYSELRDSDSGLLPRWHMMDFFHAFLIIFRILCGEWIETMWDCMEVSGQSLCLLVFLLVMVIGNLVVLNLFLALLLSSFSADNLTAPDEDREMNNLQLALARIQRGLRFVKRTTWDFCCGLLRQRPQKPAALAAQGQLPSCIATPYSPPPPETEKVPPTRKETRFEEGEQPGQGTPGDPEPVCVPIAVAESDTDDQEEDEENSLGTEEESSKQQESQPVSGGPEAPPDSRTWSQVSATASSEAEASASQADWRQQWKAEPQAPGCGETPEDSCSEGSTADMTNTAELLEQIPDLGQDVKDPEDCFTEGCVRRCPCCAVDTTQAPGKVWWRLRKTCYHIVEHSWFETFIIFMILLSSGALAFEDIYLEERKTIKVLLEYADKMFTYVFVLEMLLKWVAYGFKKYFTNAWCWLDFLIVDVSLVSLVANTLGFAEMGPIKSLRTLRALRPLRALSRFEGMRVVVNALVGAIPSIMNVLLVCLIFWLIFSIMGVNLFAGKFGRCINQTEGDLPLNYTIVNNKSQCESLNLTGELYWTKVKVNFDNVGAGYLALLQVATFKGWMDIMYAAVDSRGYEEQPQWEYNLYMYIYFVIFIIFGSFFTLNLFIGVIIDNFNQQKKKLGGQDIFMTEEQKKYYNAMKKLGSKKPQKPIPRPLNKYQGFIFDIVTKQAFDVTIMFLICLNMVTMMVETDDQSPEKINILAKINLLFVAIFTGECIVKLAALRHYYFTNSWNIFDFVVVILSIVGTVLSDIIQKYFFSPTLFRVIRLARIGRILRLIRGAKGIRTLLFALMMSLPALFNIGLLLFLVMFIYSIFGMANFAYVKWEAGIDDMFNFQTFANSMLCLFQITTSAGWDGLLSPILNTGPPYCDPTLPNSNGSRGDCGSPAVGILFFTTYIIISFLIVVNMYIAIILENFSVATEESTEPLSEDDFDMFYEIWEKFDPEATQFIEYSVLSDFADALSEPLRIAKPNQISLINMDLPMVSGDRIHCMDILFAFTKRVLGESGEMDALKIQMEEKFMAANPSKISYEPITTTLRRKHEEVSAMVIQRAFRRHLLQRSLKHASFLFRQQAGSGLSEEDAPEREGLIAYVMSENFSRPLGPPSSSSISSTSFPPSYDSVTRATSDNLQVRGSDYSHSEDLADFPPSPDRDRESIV

Row | SMILES | IC50 [1] [nM] | IC50 [4] [nM] | other results
1 | O=C(NCc1ccc(Cl)cc1Cl)C1CCN(Cc2ccn(-c3ccc(C(F)(F)F)cn3)c2)CC1 | 444 |  | IC50 [2]: 3500 nM; pKa [3]: 8.3
2 | O=C(CC1CCN(Cc2ccc(-c3ccc(Cl)cc3)o2)CC1)N1CCCC(CO)C1 (stereo not given) | 597 | 2340 | 
3 | O=C(NCCc1ccccn1)C1CCN(Cc2ccn(-c3ccc(C(F)(F)F)cc3)c2)CC1 | 339 | 10000 | 
4 | O=C(NCc1c(O)cc(Cl)cc1Cl)C1CCN(Cc2ccn(-c3ccc(C(F)(F)F)cc3)c2)CC1 | 144 |  | 
5 | O=C(CC1CCN(Cc2ccn(-c3ccc(C(F)(F)F)cc3)c2)CC1)NC(c1ccncc1)c1ccc(Cl)cc1 (stereo not given) | 17 |  | 
6 | O=C(NC1CCN(Cc2ccn(-c3ccc(C(F)(F)F)cc3)c2)CC1)NC(c1ccccc1)c1ccccc1 | 39 | 3800 | pKa [3]: 9.2
7 | O=C(NCc1ccc(Cl)cc1Cl)N1CCN(Cc2ccn(-c3ccc(C(F)(F)F)cc3)c2)CC1 | 8 |  | IC50 [2]: 1600 nM; pKa [3]: 6.2
8 | CCN(CC)C(=O)C1CCCN(C(=O)CC2CCN(Cc3ccn(-c4ccc(C(F)(F)F)cc4)c3)CC2)C1 (stereo not given) | 37 | 16000 | 
9 | O=C(CC1CCN(Cc2ccn(-c3ccc(C(F)(F)F)cc3)c2)CC1)NC(c1ccccc1)c1ccccn1 (stereo not given) | 41 | 2300 | 
10 | O=C(CC1CCN(Cc2ccn(-c3ccc(C(F)(F)F)cn3)c2)CC1)NC(c1ccc(F)cc1)c1ccc(F)cc1 | 13 |  | Activity (Mus musculus): 18.2%; IC50 [5]: 17 nM; pKa [3]: 9.1
11 | Cc1nccn1CC(NC(=O)CC1CCN(Cc2ccn(-c3ccc(C(F)(F)F)cc3)c2)CC1)c1ccccc1 (stereo not given) | 65 | 26600 | 
12 | O=C(CC1CCN(Cc2ccn(-c3ccc(C(F)(F)F)cc3)c2)CC1)N(CCCO)Cc1ccc(F)cc1 | 4 | 630 | 
13 | O=C(CC1CCN(Cc2ccn(-c3ccc(C(F)(F)F)cc3)c2)CC1)N1CCN(C(=O)N2CCCC2)CC1 | 417 | 14000 | 
14 | O=C(CC1CCN(Cc2ccn(-c3ccc(C(F)(F)F)cc3)c2)CC1)NC(c1ccc(F)cc1)c1ccc[n+]([O-])c1 (stereo not given) | 21 | > 31600 | 
15 | CCCCC(NC(=O)CC1CCN(Cc2ccn(-c3ccc(C(F)(F)F)cc3)c2)CC1)c1ccc(=O)[nH]c1 (stereo not given) | 1 |  | IC50 [5]: 19 nM
16 | O=C(CC1CCN(Cc2ccn(-c3ccc(C(F)(F)F)cc3)c2)CC1)NC(c1ccc(F)cc1)c1ccc(=O)[nH]c1 (stereo not given) | 2 | > 31600 | IC50 [5]: 25 nM
17 | O=C(CC1CCN(Cc2ccn(-c3ccc(C(F)(F)F)cc3)c2)CC1)N1CCCC(C(=O)N2CCCC2)C1 (stereo not given) | 71 | 31000 | 

Row | SMILES | IC50 [1] [nM] | IC50 [4] [nM] | other results
18 | Cn1cccc1CNC(=O)CC1CCN(Cc2ccn(-c3ccc(C(F)(F)F)cc3)c2)CC1 | 313 |  | 
19 | O=C(CC1CCN(Cc2ccn(-c3ccc(C(F)(F)F)cc3)c2)CC1)NC(c1ccc(F)cc1)c1c[nH]c(=O)c(Cl)c1 (stereo not given) | 6 | > 31600 | IC50 [6]: > 31600 nM; IC50 [5]: 21 nM; IC50 [7]: 4600 nM; clearance (Liver microsomes): < 15 µL/min/mg
20 | O=C(CC1CCN(Cc2ccn(-c3ccc(C(F)(F)F)cc3)c2)CC1)N1CCOC(C(=O)N2CCCC2)C1 (stereo not given) | 173 |  | 
21 | COCC(O)CN(Cc1ccc(F)cc1)C(=O)CC1CCN(Cc2ccc(-c3ccc(Cl)cc3)o2)CC1 (stereo not given) | 150 | 1090 | 
22 | O=C(CC1CCN(Cc2ccc(-c3ccc(Cl)cc3)o2)CC1)NCC(O)C(F)(F)F (stereo not given) | 815 | 1020 | 
23 | O=C(CC1CCN(Cc2ccn(-c3ccc(C(F)(F)F)cc3)c2)CC1)NC(c1ccccc1)c1cnc[nH]1 (stereo not given) | 17 | 11400 | 
24 | COc1ccc(C(NC(=O)CC2CCN(Cc3ccn(-c4ccc(C(F)(F)F)cc4)c3)CC2)c2ccc(F)cc2)cn1 (stereo not given) | 2 | 1750 | 
25 | CC(NC(=O)CC1CCN(Cc2ccn(-c3ccc(C(F)(F)F)cc3)c2)CC1)c1ccc(=O)[nH]c1 (stereo not given) | 67 | > 31600 | 
26 | CCCCC(NC(=O)CC1CCN(Cc2ccn(-c3ccc(C(F)(F)F)cc3)c2)CC1)c1ccc(OC)nc1 (stereo not given) | 5 | 1000 | 
27 | CN(CCC(=O)N1CCCC1)C(=O)CC1CCN(Cc2ccn(-c3ccc(C(F)(F)F)cc3)c2)CC1 | 142 |  | 
28 | O=C(NCC1(O)CCCCC1)C1CCN(Cc2ccn(-c3ccc(C(F)(F)F)cc3)c2)CC1 | 40 | 11700 | 
29 | O=C(NCc1ccc(Cl)cc1O)C1CCN(Cc2ccn(-c3ccc(C(F)(F)F)cc3)c2)CC1 | 22 | 1550 | 
30 | O=C(NCc1ccc(O)cc1Cl)C1CCN(Cc2ccn(-c3ccc(C(F)(F)F)cc3)c2)CC1 | 30 |  | 
31 | O=C(CC1CCN(Cc2ccn(-c3ccc(C(F)(F)F)cc3)c2)CC1)NC(c1ccc(F)cc1)c1cccnc1 (stereo not given) | 28 | 2170 | 
32 | O=C(CN1CCN(Cc2ccn(-c3ccc(C(F)(F)F)cn3)c2)CC1)NC(c1ccc(F)cc1)c1ccc(F)cc1 | 55 | 800 | pKa [3]: 6.5
33 | O=C(C1CCCCN1C(=O)CC1CCN(Cc2ccn(-c3ccc(C(F)(F)F)cc3)c2)CC1)N1CCCC1 (stereo not given) | 66 |  | 
